Data set [1] deals with Rattus norvegicus. Nature of the data set: Antidiabetic activity against STZ-induced diabetic Rattus norvegicus Wistar albino (rat) assessed as change in hemoglobin at 20 mg/kg, po administered via intragastric tube for 45 days (reference value: 8.5 +/-0.9 mg/dl). Type of data set: functional.
Data set [2] concerns Rattus norvegicus. The data set is described as follows: Hepatoprotective activity in STZ-induced diabetic Rattus norvegicus Wistar albino (rat) assessed as re-apperance of hepatic lobules at 20 mg/kg, po administered via intragastric tube for 45 days using hematoxylin/eosin staining method. Type of data set: functional, organism-based. Also noted: dose 20 mg/kg. The note with it: Liver.

In data set [3] the test system is Rattus norvegicus. Nature of the data set: Antidiabetic activity against STZ-induced diabetic Rattus norvegicus Wistar albino (rat) assessed as change in glycosylated hemoglobin of total hemoglobin at 20 mg/kg, po administered via intragastric tube for 45 days (reference value: 0.89 +/-0.03 %). Type of data set: functional.
Data set [4] deals with Rattus norvegicus. The data set is described as follows: Nephroprotective activity in STZ-induced diabetic Rattus norvegicus Wistar albino (rat) assessed as change in serum total protein level at 20 mg/kg, po administered via intragastric tube for 45 days (reference value: 3.7 +/-0.9 g/dl). Type of data set: functional.
For data set [5], the system named is Rattus norvegicus. The data set is described as follows: Antidiabetic activity against STZ-induced diabetic Rattus norvegicus Wistar albino (rat) assessed as serum triglyceride level at 20 mg/kg, po administered via intragastric tube for 45 days (reference value: 65.5 +/-7.9 mg/dl). The format is functional.
In data set [6] the test system is Rattus norvegicus. The data set is described as follows: Nephroprotective activity in STZ-induced diabetic Rattus norvegicus Wistar albino (rat) assessed as reduction in enlargement of glomerulus at 20 mg/kg, po administered via intragastric tube for 45 days using hematoxylin/eosin staining method. Also noted: dose 20 mg/kg. The format is functional, organism-based.

The subject of data set [7] is Rattus norvegicus. The data set is described as follows: Hepatoprotective activity in STZ-induced diabetic Rattus norvegicus Wistar albino (rat) assessed as plasma ALT level at 20 mg/kg, po administered via intragastric tube for 45 days (reference value: 97.11 +/-10.3 ug/dl). Type of data set: functional.
The test system of data set [8] is Rattus norvegicus. Nature of the data set: Antidiabetic activity against STZ-induced diabetic Rattus norvegicus Wistar albino (rat) assessed as serum LDL level at 20 mg/kg, po administered via intragastric tube for 45 days (reference value: 165.7 +/-14.35 mg/dl). Type of data set: functional.
The test system of data set [9] is Rattus norvegicus. The data set is described as follows: Antidiabetic activity against STZ-induced diabetic Rattus norvegicus Wistar albino (rat) assessed as serum cholesterol level at 20 mg/kg, po administered via intragastric tube for 45 days (reference value: 295.5 +/-17.1 mg/dl). The format is functional.
Data set [10] has as its system Rattus norvegicus. Nature of the data set: Nephroprotective activity in STZ-induced diabetic Rattus norvegicus Wistar albino (rat) assessed as change in serum urea level at 20 mg/kg, po administered via intragastric tube for 45 days (reference value: 41.5 +/-4.9 mg/dl). Type of data set: functional.
In data set [11] the test system is Rattus norvegicus. The data set is described as follows: Antidiabetic activity against STZ-induced diabetic Rattus norvegicus Wistar albino (rat) assessed as serum HDL level at 20 mg/kg, po administered via intragastric tube for 45 days (reference value: 25.8 +/-1.6 mg/dl). Type of data set: functional.
Data set [12] has as its system Rattus norvegicus. The data set is described as follows: Nephroprotective activity in STZ-induced diabetic Rattus norvegicus Wistar albino (rat) assessed as change in serum creatinine level at 20 mg/kg, po administered via intragastric tube for 45 days (reference value: 2.1 +/-0.9 mg/dl). The format is functional.
Data set [13] relates to Rattus norvegicus. Nature of the data set: Hepatoprotective activity in STZ-induced diabetic Rattus norvegicus Wistar albino (rat) assessed as plasma AST level at 20 mg/kg, po administered via intragastric tube for 45 days (reference value: 85.5 +/-9.21 ug/dl). Type of data set: functional.
Data set [14] deals with Rattus norvegicus. Nature of the data set: Nephroprotective activity in STZ-induced diabetic Rattus norvegicus Wistar albino (rat) assessed as change in serum uric acid level at 20 mg/kg, po administered via intragastric tube for 45 days (reference value: 1.5 +/-0.9 mg/dl). The format is functional.
Data set [15] relates to Rattus norvegicus. Nature of the data set: Antidiabetic activity against STZ-induced diabetic Rattus norvegicus Wistar albino (rat) assessed as serum VLDL level at 20 mg/kg, po administered via intragastric tube for 45 days (reference value: 55.2 +/-4.5 mg/dl). The format is functional.
Data set [16] deals with Rattus norvegicus. Nature of the data set: Hepatoprotective activity in STZ-induced diabetic Rattus norvegicus Wistar albino (rat) assessed as plasma ACP level at 20 mg/kg, po administered via intragastric tube for 45 days (reference value: 28.7 +/-2.61 ug/dl). Type of data set: functional.
Data set [17] has as its system Rattus norvegicus. Nature of the data set: Antidiabetic activity against STZ-induced diabetic Rattus norvegicus Wistar albino (rat) assessed as change in body weight at 20 mg/kg, po administered via intragastric tube for 45 days (reference value: 243.67 +/-8.9 g). The format is functional.
The test system of data set [18] is Rattus norvegicus. The data set is described as follows: Nephroprotective activity in STZ-induced diabetic Rattus norvegicus Wistar albino (rat) assessed as reduction in glomerular expansion at 20 mg/kg, po administered via intragastric tube for 45 days using hematoxylin/eosin staining method. Also noted: dose 20 mg/kg. Type of data set: functional, organism-based.

The subject of data set [19] is Rattus norvegicus. Nature of the data set: Hepatoprotective activity in STZ-induced diabetic Rattus norvegicus Wistar albino (rat) assessed as plasma ALP level at 20 mg/kg, po administered via intragastric tube for 45 days (reference value: 91.1 +/-9.2 ug/dl). The format is functional.
Data set [20] concerns Rattus norvegicus. Nature of the data set: Nephrotoxicity in Rattus norvegicus Wistar albino (rat) assessed as change in urea level in serum at 20 mg/kg, po administered via intragastric tube for 45 days (reference value: 24.12 +/- 2.3 mg/dl ). The format is toxicity, organism-based. Also noted: dose 20 mg/kg, route oral. The following applies: in vivo, 1080 h.
Data set [21] concerns Rattus norvegicus. The data set is described as follows: Toxicity in Rattus norvegicus Wistar albino (rat) assessed as serum triglyceride level at 20 mg/kg, po administered via intragastric tube for 45 days (Rvb =17.72 +/-1.3 mg/dl). The format is organism-based. Further details: dose 20 mg/kg, route oral. The note with it: in vivo, 1080 h.
For data set [22], the system named is Rattus norvegicus. The data set is described as follows: Toxicity in Rattus norvegicus Wistar albino (rat) assessed as change in hemoglobin level at 20 mg/kg, po administered via intragastric tube for 45 days (reference value: 15.12 +/-1.3 mg/dl ). Type of data set: organism-based. Further details: dose 20 mg/kg, route oral. The note with it: in vivo, 1080 h.

Data set [23] concerns Rattus norvegicus. Nature of the data set: Hepatotoxicity in Rattus norvegicus Wistar albino (rat) assessed as change in plasma ACP level at 20 mg/kg, po administered via intragastric tube for 45 days (reference value: 9.97+/-1.1 ug/dl). The format is toxicity, organism-based. Also noted: dose 20 mg/kg, route oral. The note with it: in vivo, 1080 h.
Data set [24] relates to Rattus norvegicus. Nature of the data set: Toxicity in Rattus norvegicus Wistar albino (rat) assessed as serum cholesterol level at 20 mg/kg, po administered via intragastric tube for 45 days (reference value: 97.72 +/-7.3 mg/dl). The format is organism-based. Also noted: dose 20 mg/kg, route oral. The note with it: in vivo, 1080 h.
Data set [25] relates to Rattus norvegicus. The data set is described as follows: Hepatotoxicity in Rattus norvegicus Wistar albino (rat) assessed as change in plasma ALP level at 20 mg/kg, po administered via intragastric tube for 45 days (reference value: 49.99+/-4.7 ug/dl). Type of data set: toxicity, organism-based. Further details: dose 20 mg/kg, route oral. The note with it: in vivo, 1080 h.

Data set [26] deals with Rattus norvegicus. Nature of the data set: Hepatotoxicity in Rattus norvegicus Wistar albino (rat) assessed as change in plasma ALT level at 20 mg/kg, po administered via intragastric tube for 45 days (reference value: 56.72 +/-5.2 ug/dl). The note with it: in vivo, 1080 h. Type of data set: toxicity, organism-based. Also noted: dose 20 mg/kg, route oral.
The test system of data set [27] is Rattus norvegicus. The data set is described as follows: Nephrotoxicity in Rattus norvegicus Wistar albino (rat) assessed as change in uric acid level in serum at 20 mg/kg, po administered via intragastric tube for 45 days (reference value: 0.96 +/- 0.93 mg/dl ). Type of data set: toxicity, organism-based. Also noted: dose 20 mg/kg, route oral. The following applies: in vivo, 1080 h.

Data set [28] deals with Rattus norvegicus. The data set is described as follows: Hepatotoxicity in Rattus norvegicus Wistar albino (rat) assessed as change in plasma AST level at 20 mg/kg, po administered via intragastric tube for 45 days (reference value: 39.6 +/-3.3 ug/dl). The format is toxicity, organism-based. Further details: dose 20 mg/kg, route oral. The following applies: in vivo, 1080 h.

Data set [29] has as its system Rattus norvegicus. The data set is described as follows: Toxicity in Rattus norvegicus Wistar albino (rat) assessed as serum HDL level at 20 mg/kg, po administered via intragastric tube for 45 days (Rvb =65.21 +/-6.9 mg/dl). Type of data set: organism-based. Also noted: dose 20 mg/kg, route oral. The note with it: in vivo, 1080 h.
The subject of data set [30] is Rattus norvegicus. The data set is described as follows: Toxicity in Rattus norvegicus Wistar albino (rat) assessed as change in glycosylated hemoglobin of total hemoglobin at 20 mg/kg, po administered via intragastric tube for 45 days (reference value: 0.52 +/-0.03 % ). Also noted: dose 20 mg/kg, route oral. Type of data set: organism-based. The following applies: in vivo, 1080 h.

For data set [31], the system named is Rattus norvegicus. The data set is described as follows: Toxicity in Rattus norvegicus Wistar albino (rat) assessed as change in body weight at 20 mg/kg, po administered via intragastric tube for 45 days (reference value: 238.2 +/-7.3 g). The format is organism-based. The following applies: in vivo, 1080 h. Also noted: dose 20 mg/kg, route oral.
The test system of data set [32] is Rattus norvegicus. The data set is described as follows: Nephrotoxicity in Rattus norvegicus Wistar albino (rat) assessed as change in creatinine level in serum at 20 mg/kg, po administered via intragastric tube for 45 days (reference value: 1.62 +/- 0.2 mg/dl ). The format is toxicity, organism-based. Also noted: dose 20 mg/kg, route oral. The following applies: in vivo, 1080 h.

Data set [33] concerns Rattus norvegicus. The data set is described as follows: Nephrotoxicity in Rattus norvegicus Wistar albino (rat) assessed as change in serum total protein level at 20 mg/kg, po administered via intragastric tube for 45 days (reference value: 8.12 +/- 1.0 g/dl ). Type of data set: toxicity, organism-based. Further details: dose 20 mg/kg, route oral. The note with it: in vivo, 1080 h.

Active and inactive are the calls of the source. The rule behind the calls is not given here.

Turning to `Oc1cc(O)c2c(c1)OC(c1ccc(O)c(O)c1)C(O)C2` (stereo not drawn) [CATECHIN], the Activity in data set [1] came to 14.98 mg/dL; in data set [3], 0.57%; in [4], 6.58 g/dL; in data set [5], 20.81 mg/dL; in [7], 59.71 µg/dL; in [8] it was 91.28 mg/dL. The Activity came out at 109.21 mg/dL in [9]; 29.98 mg/dL in data set [10]; 60.56 mg/dL in [11]; 1.78 mg/dL in data set [12]; 41.95 µg/dL in data set [13]; 0.99 mg/dL in [14]. Moreover, the Activity amounted to 13.21 mg/dL in data set [15], 11.98 µg/dL in data set [16], 209.12 g in [17] and 54.29 µg/dL in data set [19]. In addition, the result in data set [2], in data set [6] and in data set [18] was Active.

On to `Oc1cc(O)c2c(c1)O[C@H](c1ccc(O)c(O)c1)[C@@H](O)C2` [CATECHIN], for which the Activity came out at 23.98 mg/dL in data set [20]; 18.18 mg/dL in data set [21]; 14.98 mg/dL in data set [22]; 9.52 µg/dL in [23]; 98.34 mg/dL in data set [24]; 50.87 µg/dL in [25]. Besides, the Activity worked out at 55.18 µg/dL in data set [26]; 0.98 mg/dL in data set [27]; 36.12 µg/dL in data set [28]; 68.65 mg/dL in data set [29]; 0.46% in data set [30]; 239.67 g in data set [31]. For the same compound, the Activity in [32] amounted to 1.98 mg/dL; in data set [33], 8.98 g/dL.

The values are drawn from ChEMBL document CHEMBL3045428, “Hypolipidemic, hepato-protective and renal damage recovering effects of catechin isolated from the methanolic extract of Cassia fistula stem bark on Streptozotocin-induced diabetic Wistar rats: a biochemical and morphological analysis” (Med Chem Res, 2012).
